# What was measured:
# FXR = biological target: T1, FXR (Homo sapiens, UniProt Q96RI1); experiment: FXR antagonist screening by TR-FRET (LanthaScreen TR-FRET FXR co-activation assay kit); format: biochemical; settings: Table 1.1, FXR antagonistic activity; TR-FRET with CDCA; geometric means of at least two independent runs
# T1 construct: 5 μL of 20 nM FXR-LBD Complete Coregulator buffer G; purchased ThermoFisher PV4833
# T1 sequence (Q96RI1 262-486 limits assumed): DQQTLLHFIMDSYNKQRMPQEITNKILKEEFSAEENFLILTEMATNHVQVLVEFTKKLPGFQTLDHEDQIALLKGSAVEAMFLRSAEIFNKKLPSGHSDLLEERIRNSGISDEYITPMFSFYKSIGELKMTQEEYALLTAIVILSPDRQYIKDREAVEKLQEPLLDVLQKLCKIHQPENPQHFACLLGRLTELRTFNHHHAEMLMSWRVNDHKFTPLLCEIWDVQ
# How it was run: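 FXR-LBD (20 nM working solution) mixed with compound, CDCA (200 μM working solution) as agonist, Fluorescein-SRC2-2 and Tb-anti-GST antibody in Coregulator buffer G; 10 h at room temperature. Coactivator recruitment read by TR-FRET, triplicate wells.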
Structure (SMILES),IC50 (FXR) [µM],melting point
"Cc1c(C(=O)O)oc2ccc(S(=O)(=O)N(CCc3ccccc3)Cc3ccc(Cl)cc3)cc12 [Example F27-S29, 3-methyl-5-(N-(4-chlorobenzyl)-N-phenethylsulfamoyl)benzofuran-2-carboxylic acid]",10 to 50,172 to 173 °C
"Cc1c(C(=O)O)oc2ccc(S(=O)(=O)N(CCc3ccccc3)Cc3ccc(Cl)cc3F)cc12 [Example F27-S52, 3-methyl-5-(N-(2-fluoro-4-chlorobenzyl)-N-phenethylsulfamoyl)benzofuran-2-carboxylic acid]",10 to 50,> 380 °C (dec.)
"Cc1c(C(=O)O)oc2ccc(S(=O)(=O)N(CCc3ccccc3)c3ccc(C4CCN(C(=O)OC(C)(C)C)CC4)cc3)cc12 [Example F27-S73, 3-methyl-5-(N-(4-(1-(tert-butoxycarbonyl)piperidin-4-yl)phenyl)-N-phenethylsulfamoyl)benzofuran-2-carboxylic acid]",0.1 to 10,> 380 °C (dec.)
"Cc1c(C(=O)O)oc2ccc(S(=O)(=O)N(CCc3ccccc3)Cc3ccccc3Cl)cc12 [Example F27-S15, 3-methyl-5-(N-(2-chlorobenzyl)-N-phenethylsulfamoyl)benzofuran-2-carboxylic acid]",10 to 50,156 to 157 °C
"Cc1c(C(=O)O)oc2ccc(S(=O)(=O)N(CCc3ccccc3)Cc3c(F)cc(Cl)cc3F)cc12 [Example F27-S62, 3-methyl-5-(N-(2,6-difluoro-4-chlorobenzyl)-N-phenethylsulfamoyl)benzofuran-2-carboxylic acid]",10 to 50,> 380 °C (dec.)
"Cc1c(C(=O)O)oc2ccc(S(=O)(=O)N(CCc3ccccc3)Cc3ccc(C(=O)c4ccccc4)cc3)cc12 [Example F27-S85, 3-methyl-5-(N-(4-benzoylbenzyl)-N-phenethylsulfamoyl)benzofuran-2-carboxylic acid]",10 to 50,192 to 193 °C
"Cc1c(C(=O)O)oc2ccc(S(=O)(=O)N(CCc3ccccc3)c3ccccc3N3CCN(C(=O)N(C)C)CC3)cc12 [Example F27-S92, 3-methyl-5-(N-(2-(4-(dimethylcarbamoyl)piperazin-1-yl)phenyl)-N-phenethylsulfamoyl)benzofuran-2-carboxylic acid]",10 to 50,> 380 °C (dec.)
"Cc1c(C(=O)O)oc2ccc(S(=O)(=O)N(CCc3ccccc3)Cc3c(F)cccc3F)cc12 [Example F27-S46, 3-methyl-5-(N-(2,6-difluorobenzyl)-N-phenethylsulfamoyl)benzofuran-2-carboxylic acid]",10 to 50,180 to 181 °C
"Cc1c(C(=O)O)oc2ccc(S(=O)(=O)N(CCc3ccccc3)c3ccc(N4CCOCC4)cc3)cc12 [Example F27-S63, 3-methyl-5-(N-(4-morpholinophenyl)-N-phenethylsulfamoyl)benzofuran-2-carboxyli acid]",50 to 100,> 380 °C (dec.)
"Cc1c(C(=O)O)oc2ccc(S(=O)(=O)N(CCc3ccccc3)c3ccccc3N3CCNCC3)cc12 [Example F27-S89, 3-methyl-5-(N-phenethyl-N-(2-(piperazin-1-yl)phenyl)sulfamoyl)benzofuran-2-carboxylic acid]",50 to 100,172 to 173 °C
"Cc1c(C(=O)O)oc2ccc(S(=O)(=O)N(CCc3ccccc3)Cc3ccc(C(C)(C)C)cc3)cc12 [Example F27-S37, 3-methyl-5-(N-(4-tert-butylbenzyl)-N-phenethylsulfamoyl)benzofuran-2-carboxylic acid]",10 to 50,206 to 207 °C
"Cc1c(C(=O)O)oc2ccc(S(=O)(=O)N(CCc3ccccc3)c3ccccc3N3CCN(C(=O)OC(C)(C)C)CC3)cc12 [Example F27-S77, 3-methyl-5-(N-(2-(4-(tert-butoxycarbonyl)piperazin-1-yl)phenyl)-N-phenethylsulfamoyl)benzofuran-2-carboxylic acid]",0.1 to 10,168 to 169 °C

# From patent US20240239775A1, “FXR REGULATOR, PREPARATION METHOD THEREFOR, PHARMACEUTICAL COMPOSITION THEREOF AND USE THEREOF” (QINGDAO RUIJI MEDICAL TECHNOLOGY CO., LTD., priority 2021, published 2024)
